Measured values published in PubChem BioAssay AID1963828 (Molecular Pharmacology Branch, DTP, NCI, 2024).
Several values for one entry are separate records, joined by “and”; a condition that tells them apart may be missing. Equal values may be shown once.

System: 991263-137-R1-J2-PDC complex spheroid viability
Test: Anticancer human tumor 991263-137-R1-J2-PDC patient-derived colon adenocarcinoma cell line growth inhibition [POLQ]
Conditions: for viability, T/C: stronger effect = lower value
Protocol: Multicellular complex tumor spheroid response to Polymerase (POL) inhibitors (novobiocin, ART-558, RP6685) in combination with a variety of drugs and investigational agents in selected tumor cell lines
The POL inhibitors (novobiocin, ART-558, and RP6685) were evaluated both individually and in combination with standard of care and investigational anticancer small molecules within a complex spheroid model of solid tumors. . Complex spheroids include a stromal component modeled by human endothelial cells (HUVEC) and fibroblasts modeled by human mesenchymal stem cells (MSCs). The concentration ranges selected for each drug and investigational agent were based upon clinically achievable concentrations if the clinical Cmax of the agent was known.
Compounds. The drugs and investigational agents: novobiocin (NSC847541), ART-558 (NSC835418), RP-6685 (NSC848927), peposertib (NSC802822), ceralasertib (NSC780249), elimusertib (NSC800525), camonsertib (NSC841442), AZD-1390 (NSC803789), olaparib (NSC753686), talazoparib (NSC767125), rucaparib (NSC756644), sotorasib (NSC818433), MRTX-1133 (NSC836407), SN-38 (NSC673596), topotecan (NSC609699), epotoside (NSC141540), doxorubicin (NSC123127), gemcitabine (NSC613327), 5-fluorouracil (NSC19893), paclitaxel (NSC125973), vemurafenib (NSC761431), MSA-2 (NSC828583), SN-011 (NSC837082), adavosertib (NSC754352), prexasertib (NSC758257), carboplatin (NSC241240) and oxaliplatin (NSC266046), were obtained from the National Cancer Institute (NCI) Developmental Therapeutics Program Chemical Repository (21). The FDA-approved anticancer drug set is available from the Developmental Therapeutics Program at https://dtp.cancer.gov/organization/dscb/obtaining/. […] The stock solutions were prepared in dimethyl sulfoxide (DMSO, Sigma-Aldrich, St. Louis, MO, cat. D2650), except for the platinum compounds which were prepared in saline (Quality Biological, Gaithersburg, MD, cat. 114-055-101), at 800-fold the tested concentration and stored at -70 degrees C prior to their use. All drugs and investigational agents were tested over a range starting from a high concentration at or near the clinical Cmax and decreasing in half-log increments. If the clinical Cmax for an agent had not been determined, the highest concentration tested was 10 microM, except for SN-38, which was tested at a high concentration of 1 microM.
Cell Culture. All cells were maintained in an incubator at 37 degrees C and 5% CO2 with 95% humidity. The PDC lines were cultured according to standard operating procedures established by the NCI PDMR (https://pdmr.cancer.gov). Table 3 of the manuscript, lists the cell lines along with the number of the three cell types plated to form the mct-spheroids and media for tumor cell growth. After thawing, all PDC lines, except 997537-175-T-J1-PDC and 415267-285-R-J2-PDC, were cultured in Matrigel-coated flasks prepared with a working solution of 1X Ham's F-12 nutrient mix, without supplementation (Thermo Fisher Scientific, cat. 11765054), 100 U/mL penicillin-streptomycin (Thermo Fisher Scientific, cat. 15140122), and 2.5% Matrigel (Corning Inc., Corning, NY, cat. 354248) for the first three passages. The two PDC lines 997537-175-T-J1-PDC and 415267-285-R-J2-PDC were cultured on uncoated flasks. The 857933-349-R-J2-PDC line was cultured in 6C/Colon 1B media containing advanced DMEM/F-12 (Thermo Fisher Scientific, cat. 12634028), 10 mM HEPES (Thermo Fisher Scientific, cat. 15630080), 1X GlutaMAX supplement (Thermo Fisher Scientific, cat. 35050061), 0.1 mg/mL primocin (InvivoGen, San Diego, CA, cat. ant-pm-2), 10% defined fetal bovine serum, heat inactivated (HyClone Laboratories Inc., Logan, UT, cat. SH30070.03HI), 50% L-WRN conditioned media (ATCC, cat. CRL-3276), 1.25 mM N-Acetyl-L-cysteine (Sigma-Aldrich, cat. A9165), 10 mM nicotinamide (Sigma-Aldrich, cat. N0636), 1X B-27 supplement (Thermo Fisher Scientific, cat. 17504044), 1X N-2 supplement (Thermo Fisher Scientific, cat. […]

[1] = compound alone, run of 01/19/2024
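Note: spheroids exposed to compounds for 7 days before readout.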
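Throughout, for viability, T/C: 100% = DMSO vehicle control viability.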

Row | SMILES | viability, T/C (compound 0.00316 µM) | viability, T/C (compound 0.01 µM) | viability, T/C (compound 0.0316 µM) | viability, T/C (compound 0.316 µM) | viability, T/C (compound 1 µM) | IC50 (curve of compound) | viability, T/C (compound 0.1 µM) | viability, T/C (compound 3.16 µM) | viability, T/C (compound 10 µM) | IC50 (compound alone, run of 01/08/2024) [nM] | IC50 [1] [nM] | viability, T/C (compound 0.000316 µM) | viability, T/C (compound 0.001 µM)
1 | COc1cccc(OCCCN)c1-c1cc(Nc2cnc(C#N)cn2)n[nH]1 | 89.6% and 99.7% and 88.6% | 98.1% and 107% and 85.7% | 101% and 94.9% and 94.6% | 43.2% and 53.1% and 61.2% | 40.1% and 42.8% and 46.3% | 90.9 nM and 464 nM and 750 nM | – | – | – | – | – | – | –
2 | COc1cccc2c1C(=O)c1c(O)c3c(c(O)c1C2=O)CC(O)(C(=O)CO)CC3OC1CC(N)C(O)C(C)O1 (stereo unspecified) | – | – | 103% and 95.2% and 99.9% | 77% and 85.2% (2×) | 51% and 54.2% and 48.5% | 903 nM and 1420 nM and 972 nM | 106% and 91% and 88.5% | 29.6% and 40.6% and 40.8% | 41.7% and 36.5% and 38.3% | – | – | – | –
3 | Cc1cccc(N(C)C(=O)C2C(O)CCN2c2nc(C)cc(C(F)(F)F)c2C#N)c1 (stereo unspecified) | – | – | 101% [middle of 13 runs] | – | – | – | 99.2% [middle of 13 runs] | 101% [middle of 13 runs] | 100% [middle of 13 runs] | > 10000 | > 10000 | – | –
4 | Cn1ncnc1[C@H]1c2n[nH]c(=O)c3cc(F)cc(c23)N[C@@H]1c1ccc(F)cc1 | 102% and 104% and 109% | 109% and 105% and 119% | 89.6% and 101% and 84.5% | – | – | > 100 nM | 106% and 112% and 105% | – | – | – | – | 102% and 97.3% and 87.3% | 93.6% and 88.1% and 88.5%
5 | Nc1ccc(C#CCN(C(=O)Cc2ncc(C(F)(F)F)cc2C(F)(F)F)c2ccc(F)cc2)nn1 | – | – | 100% [middle of 13 runs] | 99.3% [middle of 13 runs] | 102% [middle of 13 runs] | – | 101% [middle of 13 runs] | 103% [middle of 13 runs] | 101% [middle of 13 runs] | – | > 10000 | – | –
6 | Nc1ccn(C2OC(CO)C(O)C2(F)F)c(=O)n1 (stereo unspecified) | – | – | 90.8% and 85.4% and 75.5% | 69% and 61.1% and 58.6% | 58.6% and 60.4% and 47.9% | – | 53.7% and 74.1% and 58.9% | 37.6% and 56.2% and 37.2% | 40.8% and 47% and 37.3% | – | – | – | –
7 | O=C(c1cc(Cc2n[nH]c(=O)c3ccccc23)ccc1F)N1CCN(C(=O)C2CC2)CC1 | – | – | 106% and 90.8% and 97% | 84.8% and 95.7% and 101% | 108% and 85.4% and 103% | > 10000 nM | 97.2% and 97.7% and 99.1% | 105% and 92.7% and 98.1% | – | – | – | – | –
8 | O=c1[nH]cc(F)c(=O)[nH]1 | – | – | 106% and 114% and 96.5% | 76.8% and 93.5% and 94.8% | 94% and 95.8% and 91% | > 10000 nM | 90.3% and 99.3% and 92.5% | – | 91.7% and 85.1% and 80.9% | – | – | – | –
